Laboratory results: PubChem BioAssay AID1259407 (Chemical Carcinogenesis Research Information System (CCRIS), 2018)
Activity calls are given as the source filed them. How the calls were made is not given here.

Tested on: CCRIS mutagenicity, Ames/micronucleus/aberration tests
Test: CCRIS mutagenicity studies
[1] = Test System: AMES SALMONELLA TYPHIMURIUM, Strain/Indicator: TA98, Metabolic Activation: NONE, Method: STANDARD PLATE
[2] = Test System: AMES SALMONELLA TYPHIMURIUM, Strain/Indicator: TA100, Metabolic Activation: NONE, Method: STANDARD PLATE

BrCC(Br)C1CCC(Br)C(Br)C1 (stereo unspecified)
mutagenic call (End Point: IN VITRO CHROMOSOMAL ABERRATIONS, Test System: CHINESE HAMSTER LUNG CELLS (CHL), Metabolic Activation: NONE): inactive; negative | mutagenic call (End Point: IN VITRO CHROMOSOMAL ABERRATIONS, Test System: CHINESE HAMSTER LUNG CELLS (CHL), Metabolic Activation: RAT, LIVER, S-9, KC-400): active; positive (structural changes) | mutagenic call (End Point: IN VITRO CHROMOSOMAL ABERRATIONS, Test System: CHINESE HAMSTER OVARY CELLS (CHO), Metabolic Activation: NONE): inactive; negative | mutagenic call (End Point: IN VITRO CHROMOSOMAL ABERRATIONS, Test System: CHINESE HAMSTER OVARY CELLS (CHO), Metabolic Activation: RAT, LIVER, S-9, AROCLOR 1254): inactive; negative | mutagenic call (End Point: IN VITRO CHROMOSOMAL ABERRATIONS, Test System: CHO CELLS, Metabolic Activation: NONE): inactive; negative | mutagenic call (End Point: IN VITRO CHROMOSOMAL ABERRATIONS, Test System: CHO CELLS, Metabolic Activation: RAT, LIVER, S-9, AROCLOR 1254): inactive; negative | mutagenic call (Test System: AMES SALMONELLA TYPHIMURIUM, Strain/Indicator: TA98, Metabolic Activation: HAMSTER, LIVER, S-9, AROCLOR 1254 (10%), Method: PREINCUBATION): inactive; negative | mutagenic call (Test System: AMES SALMONELLA TYPHIMURIUM, Strain/Indicator: TA98, Metabolic Activation: NONE, Method: PREINCUBATION): inactive; negative | mutagenic call (Test System: AMES SALMONELLA TYPHIMURIUM, Strain/Indicator: TA98, Metabolic Activation: RAT, LIVER, S-9, AROCLOR 1254 (10%), Method: PREINCUBATION): inactive; negative | mutagenic call (Test System: AMES SALMONELLA TYPHIMURIUM, Strain/Indicator: TA100, Metabolic Activation: HAMSTER, LIVER, S-9, AROCLOR 1254 (10%), Method: PREINCUBATION): inactive; negative | mutagenic call (Test System: AMES SALMONELLA TYPHIMURIUM, Strain/Indicator: TA100, Metabolic Activation: NONE, Method: PREINCUBATION): inactive; negative | mutagenic call (Test System: AMES SALMONELLA TYPHIMURIUM, Strain/Indicator: TA100, Metabolic Activation: RAT, LIVER, S-9, AROCLOR 1254 (10%), Method: PREINCUBATION): inactive; negative | mutagenic call (Test System: AMES SALMONELLA TYPHIMURIUM, Strain/Indicator: TA1535, Metabolic Activation: HAMSTER, LIVER, S-9, AROCLOR 1254 (10%), Method: PREINCUBATION): inactive; negative | mutagenic call (Test System: AMES SALMONELLA TYPHIMURIUM, Strain/Indicator: TA1535, Metabolic Activation: NONE, Method: PREINCUBATION): inactive; negative | mutagenic call (Test System: AMES SALMONELLA TYPHIMURIUM, Strain/Indicator: TA1535, Metabolic Activation: RAT, LIVER, S-9, AROCLOR 1254 (10%), Method: PREINCUBATION): inactive; negative | mutagenic call (Test System: AMES SALMONELLA TYPHIMURIUM, Strain/Indicator: TA1537, Metabolic Activation: HAMSTER, LIVER, S-9, AROCLOR 1254 (10%), Method: PREINCUBATION): inactive; negative | mutagenic call (Test System: AMES SALMONELLA TYPHIMURIUM, Strain/Indicator: TA1537, Metabolic Activation: NONE, Method: PREINCUBATION): inactive; negative | mutagenic call (Test System: AMES SALMONELLA TYPHIMURIUM, Strain/Indicator: TA1537, Metabolic Activation: RAT, LIVER, S-9, AROCLOR 1254 (10%), Method: PREINCUBATION): inactive; negative | mutagenic call (Test System: MOUSE LYMPHOMA, Strain/Indicator: L5178Y (TK+/TK-), Metabolic Activation: NONE, Method: SUSPENSION/PLATE): active; positive

Cc1cc(-c2ccccc2)cc(C)c1N
mutagenic call [1]: inactive; negative | mutagenic call (Test System: AMES SALMONELLA TYPHIMURIUM, Strain/Indicator: TA98, Metabolic Activation: RAT LIVER S-9, AROCLOR, Method: STANDARD PLATE): active; positive | mutagenic call [2]: inactive; negative | mutagenic call (Test System: AMES SALMONELLA TYPHIMURIUM, Strain/Indicator: TA100, Metabolic Activation: RAT LIVER S-9, AROCLOR, Method: STANDARD PLATE): active; positive

COC(=O)Nc1nc2ccc(Sc3ccccc3)cc2[nH]1
mutagenic call (Test System: AMES SALMONELLA TYPHIMURIUM, Strain/Indicator: TA97, Metabolic Activation: NONE, Method: STANDARD PLATE): inactive; negative | mutagenic call (Test System: AMES SALMONELLA TYPHIMURIUM, Strain/Indicator: TA97, Metabolic Activation: RAT, LIVER, S-9, AROCLOR 1254, Method: STANDARD PLATE): inactive; negative | mutagenic call [1]: inactive; negative | mutagenic call (Test System: AMES SALMONELLA TYPHIMURIUM, Strain/Indicator: TA98, Metabolic Activation: RAT, LIVER, S-9, AROCLOR 1254, Method: STANDARD PLATE): inactive; negative | mutagenic call [2]: inactive; negative | mutagenic call (Test System: AMES SALMONELLA TYPHIMURIUM, Strain/Indicator: TA100, Metabolic Activation: RAT, LIVER, S-9, AROCLOR 1254, Method: STANDARD PLATE): inactive; negative | mutagenic call (Test System: AMES SALMONELLA TYPHIMURIUM, Strain/Indicator: TA102, Metabolic Activation: NONE, Method: STANDARD PLATE): inactive; negative | mutagenic call (Test System: AMES SALMONELLA TYPHIMURIUM, Strain/Indicator: TA102, Metabolic Activation: RAT, LIVER, S-9, AROCLOR 1254, Method: STANDARD PLATE): inactive; negative
